According to ChEMBL document CHEMBL5375962 (J Med Chem, 2023):
Converted amounts (≈) assume the structure as drawn.

Assays:
[1] = tested on: Hepatocyte; test: Cytotoxicity against rat Primary hepatocyte; type: toxicity, cell-based; conditions: hepatocytes
[2] = Metabolic stability in human liver microsomes assessed as compound degradation measured after 30 mins; type: ADME, Microsome; conditions: read-out: Drug degradation
[3] = Clearance in dog hepatocytes measured per 10^6 cells; type: ADME, cell-based, Canis lupus familiaris, Hepatocyte; conditions: read-out: CLH
[4] = Clearance in rat hepatocytes measured per 10^6 cells; type: ADME, cell-based, Hepatocyte; conditions: read-out: CLH
[5] = Inhibition of mouse KHK-C
[6] = target: T1, Ketohexokinase (Homo sapiens, UniProt P50053); test: Inhibition of human KHK-A preincubated for 15 mins followed by substrate addition and measured after 20 mins in presence of ATP by Rapidfire MS analysis
T1 sequence (P50053 whole entry): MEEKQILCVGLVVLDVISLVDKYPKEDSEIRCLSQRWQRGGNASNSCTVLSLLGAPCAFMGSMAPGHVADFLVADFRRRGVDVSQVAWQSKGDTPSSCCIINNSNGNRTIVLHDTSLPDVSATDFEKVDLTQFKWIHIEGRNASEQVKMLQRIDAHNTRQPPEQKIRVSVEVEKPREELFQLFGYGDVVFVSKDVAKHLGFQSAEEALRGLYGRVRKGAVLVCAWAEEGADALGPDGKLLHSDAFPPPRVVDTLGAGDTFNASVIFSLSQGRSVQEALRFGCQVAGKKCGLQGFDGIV

[7] = Clearance in human hepatocytes measured per 10^6 cells; type: ADME, cell-based, Hepatocyte; conditions: read-out: CLH
[8] = Thermodynamic solubility of the compound […] at pH 7.4; type: physicochemical; conditions: read-out: Therm_solubility
[9] = target: T1, Ketohexokinase; test: Inhibition of KHK in human HepG2 cells incubated for 3 hrs by Rapidfire MS analysis; type: cell-based
[10] = Metabolic stability in mouse liver microsomes assessed as compound degradation measured after 30 mins; type: ADME, Microsome; conditions: read-out: Drug degradation
[11] = Permeability in MDCK cells assessed as drug transport measured over 1 hr in presence of P-gp; type: ADME, cell-based, Canis lupus familiaris; conditions: dog
[12] = Metabolic stability in dog liver microsomes assessed as compound degradation measured after 30 mins; type: ADME, Canis lupus familiaris, Microsome; conditions: read-out: Drug degradation
[13] = target: T1, Ketohexokinase; test: Inhibition of human KHK-C preincubated for 15 mins followed by substrate addition and measured after 20 mins in presence of ATP by Rapidfire MS analysis
[14] = Metabolic stability in rat liver microsomes assessed as compound degradation measured after 30 mins; type: ADME, Microsome; conditions: read-out: Drug degradation
[15] = Inhibition of mouse KHK-A

Row | SMILES | LC20 [1] [nM] | metabolised at 0.5 h [2] [%] | hepatocyte CLint [3] [µL/min/1e6 cells] | hepatocyte CLint [4] [µL/min/1e6 cells] | IC50 [5] [nM] | IC50 [6] [nM] | hepatocyte CLint [7] [µL/min/1e6 cells] | solubility thermodynamic [8] [µg/mL] | IC50 [9] [nM] | metabolised at 0.5 h [10] [%] | Drug transport [11] [%] | metabolised at 0.5 h [12] [%] | IC50 [13] [nM] | metabolised at 0.5 h [14] [%] | IC50 [15] [nM]
1 | C[C@H]1CCN1c1nc(-c2cnn(C3CN(C)C3)c2)cc(C(F)(F)F)n1 | > 50000 | 20 | 49 | 29 | 2 | 5 | 5 | 11 (≈ 31.2 µM) | 3 | 87 | 22 | 100 | 4 | 86 | –
2 | C[C@H]1CCN1c1nc(-c2cnn(C3CNC3)c2)cc(C(F)(F)F)c1C#N | 31000 | 15 | – | – | 5 | 15 | – | 40 (≈ 110 µM) | 2 | 13 | – | 27 | 15 | 26 | 8
3 | C[C@H]1CCN1c1nc(-c2cnn(C3CCN(C(=O)CN)CC3)c2)cc(C(F)(F)F)c1C#N | 16000 | 0 | – | – | 10 | 6 | – | 12 (≈ 26.8 µM) | 16 | 18 | – | 0 | 6 | 5 | 3
4 | C[C@H]1CCN1c1nc(-c2cnn(CCO)c2)cc(C(F)(F)F)c1C#N | – | 52 | – | – | 7 | 5 | – | 1 (≈ 2.85 µM) | 48 | 99 | – | 95 | – | 99 | 4
5 | C[C@H]1CCN1c1nc(-c2cnn(C3CCNCC3)c2)cc(C(F)(F)F)c1C#N | < 9000 | 0 | 4.9 | 3.7 | 6 | 4 | 3.5 | 39 (≈ 99.9 µM) | 5 | 24 | 8.7 | 11 | 4 | 2 | 2
6 | C[C@H]1CCN1c1nc(-c2cnn(CCN(C)C)c2)cc(C(F)(F)F)c1C#N | > 50000 | 76 | – | – | 44 | 22 | – | < 1 | 82 | 100 | – | 100 | 28 | 83 | 4.5
7 | C[C@H]1CCN1c1nc(-c2cnn(CC(=O)N3CCN(C)CC3)c2)cc(C(F)(F)F)c1C#N | 18000 | 60 | – | – | 7 | 9 | – | 7 (≈ 15.6 µM) | 36 | 93 | – | 95 | 6 | 52 | 4
8 | C[C@H]1CCN1c1nc(-c2cn[nH]c2)cc(C(F)(F)F)c1C#N | > 50000 | 52 | 150 | 30 | 19 | – | 49 | 3 (≈ 9.76 µM) | 34 | 100 | 20 | 98 | – | 81 | 6
